Key:
[1] = target: T1, human α7 nAChR subtype (Homo sapiens, UniProt P36544); test: biochemical; type: binding
T1 construct: expressed in transfected cells; host or cells: SH-SY5Y cells (membranes)

[2] = tested on: citric acid-induced cough in guinea pigs; test: In vivo citric acid-induced cough in guinea pigs (whole body plethysmograph); conditions: for cough incubation period: p<0.05 vs saline control (232 seconds)
Description: As depicted in FIG. 1, cough induction is conducted by placing guinea pigs into a whole body plethysmograph (WBP) equipped with a Aeroneb™ vibrating mesh nebulizer, and including pressure transducers and detection equipment (EMKA technologies). A primary microphone is supplied (EMKA Technologies) for acoustic confirmation of cough frequency in the form of a digital trace using the EMKA software.
A secondary microphone (T1 True Wireless Earphone, QCY®) also is placed in the chamber and connected to a smartphone via Bluetooth to enable the observers to hear the audible sounds during the test. A bias flow rate of 2 L/min is used to continuously draw either atmospheric air (during the fresh air period) or aerosolized citric acid from the nebulizer into the WBP and expel it out through an exhaust pipe. Chamber pressure in the WBP is set to be between −10 to −30 Pa relative to ambient pressure.
Prior to the citric acid challenge, the guinea pigs are administered (intraperitoneal injection) with vehicle control, positive control or test compound (where applicable) with different dosage (Table 2) and placed individually into the WBP for at least 5 minutes in order to habituate.
The procedure was as follows: Injection→mice in box having citric acid for 10 mins (counting the cough)→box then fill with air for 5 mins (counting the cough)→mice move to recovery cage.
Appropriate concentration of citric acid is used to generate aerosol and deliver to WBP for 10 minutes with constant recording of pressure measurements. The mean concentration of citric acid was 1283.1±137.2 μg/L. Upon completion of citric acid challenge, the guinea pig is allowed to recover and continue recording of cough counts for another 5 minutes. Subsequently, the guinea pigs are closely monitored in recovery cage for full recovery from the challenge and that no adverse events were present before returning the animals to its home cage. Cough counts (CCnt) are recorded over a period of at least 10 mins, starting from citric acid stimulation and cough incubation period (CIP) are defined as the time it takes to cough for the first time after citric acid stimulation.
The cough response during citric acid challenge and post-treatment recovery is carefully monitored using: • continuous pressure monitoring (plethysmography monitoring software) • acoustic confirmation of cough using microphones (primary and secondary) • visual confirmation of cough through posture change.
The data were analysed using Oneway ANOVA (*p<0.05, **p<0.01, ***p<0.001, ****p<0.0001) when compared to saline control, and each column represents Mean±SEM.

T1 sequence (P36544 23-502): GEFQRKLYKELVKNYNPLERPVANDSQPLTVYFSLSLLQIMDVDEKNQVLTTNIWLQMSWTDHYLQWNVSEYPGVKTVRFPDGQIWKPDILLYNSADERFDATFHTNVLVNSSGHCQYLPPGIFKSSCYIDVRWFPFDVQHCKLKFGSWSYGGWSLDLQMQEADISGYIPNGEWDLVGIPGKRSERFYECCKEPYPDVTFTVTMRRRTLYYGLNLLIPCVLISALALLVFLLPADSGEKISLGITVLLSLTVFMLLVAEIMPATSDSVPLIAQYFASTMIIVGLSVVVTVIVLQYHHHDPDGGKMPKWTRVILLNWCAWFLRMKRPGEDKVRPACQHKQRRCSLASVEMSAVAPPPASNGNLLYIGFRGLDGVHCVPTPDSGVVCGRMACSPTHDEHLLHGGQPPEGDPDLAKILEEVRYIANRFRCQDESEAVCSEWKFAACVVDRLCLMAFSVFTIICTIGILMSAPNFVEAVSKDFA

With `C1=C(c2ccc(-c3ccccc3)nc2)C2CCN(C1)CC2` [4-(6-Phenyl-3-pyridyl)-1-azabicyclo[3.2.2]non-3-ene] the Ki [1] was 130 nM, the “citric acid-induced cough counts (number of coughs)” value (“citric acid-induced cough counts” for short) ([2]; high concentration 15 mg/kg intraperitoneal, p<0.05 vs saline control (13 coughs)) was 7 and the cough incubation period ([2]; high concentration 15 mg/kg intraperitoneal) was 491 s. The “citric acid-induced cough counts” value ([2]; low concentration 1.5 mg/kg intraperitoneal, p<0.0001 vs saline control (13 coughs)) was 3, the cough incubation period ([2]; low concentration 1.5 mg/kg intraperitoneal) was 504 s and the “citric acid-induced cough counts” value ([2]; medium concentration 5 mg/kg intraperitoneal, p<0.05 vs saline control (13 coughs)) was 6.
`C1=C(c2ccc(-c3ccccc3)nn2)C2CCN(C1)CC2` [4-(6-Phenylpyridazin-3-yl)-1-azabicyclo[3.2.2]non-3-ene] gave a Ki [1] of 320 nM.

From US20250268910A1 (priority 2022, published 2025)
